{"source": "patent US9475848B2", "about": "(priority 2012, dated 2016)", "key": {"[1]": {"system": "B. pertussis", "assay_type": "cell-based, Bordetella pertussis"}, "[2]": {"system": "pertussis toxin (PT) production", "assay_type": "cell-based, Bordetella pertussis"}, "[3]": {"system": "Bordetella pertussis", "assay_type": "cell-based", "conditions": "for accumulation of bvg^− cells: MgSO4 20 mM (series C), niacin 0.604 g/L (series B) or both, compared with series A"}, "[4]": {"system": "B. pertussis"}, "[5]": {"conditions": "COQ255: niacin 0.604 g/L in first two pre-cultures, 0.004 g/L thereafter"}}, "note": "Values joined by “and” are separate entries in the source; they are usually repeats but may differ in a detail not shown here. Identical values can stand only once. Like-named read-outs stand apart in the source and are kept apart here."}
{"smiles": "O=P([O-])(O)O.[K+]", "note": "[KH2PO4]", "values": [{"measurement": "Final biomass (OD650 nm)", "setting": "[1]; COQ279: KH2PO4 0.8 g/L", "value": 9.2, "unit": "OD650 nm"}, {"measurement": "Final biomass (OD650 nm)", "setting": "[1]; COQ280: KH2PO4 0.5 g/L", "value": 9.7, "unit": "OD650 nm"}, {"measurement": "PT concentration at end of fermentation", "setting": "[2]", "value": "19 mg/L and 13 mg/L"}, {"measurement": "Specific PT production at end of fermentation", "setting": "[2]", "value": "2.0 mg L^−1 mg L^−1 OD650 nm^−1 and 1.4 mg L^−1 OD650 nm^−1"}, {"measurement": "decrease in PT production compared to COQ280", "setting": "[2]", "value": 32, "unit": "%"}]}
{"smiles": "N[C@@H](CS)C(=O)O", "note": "[L-cysteine]", "values": [{"measurement": "Final biomass (OD650 nm)", "setting": "[1]; COQ280: L-cysteine 0.04 g/L", "value": 9.7, "unit": "OD650 nm"}, {"measurement": "Final biomass (OD650 nm)", "setting": "[1]; COQ396: L-cysteine 0.2 g/L", "value": 11.0, "unit": "OD650 nm"}, {"measurement": "PT concentration at end of fermentation", "setting": "[2]", "value": "19 mg/L and 13 mg/L"}, {"measurement": "Specific PT production at end of fermentation", "setting": "[2]", "value": "2.0 mg L^−1 mg L^−1 OD650 nm^−1 and 1.2 mg L^−1 OD650 nm^−1"}, {"measurement": "decrease in PT production compared to COQ280", "setting": "[2]", "value": 32, "unit": "%"}]}
{"smiles": "O=S(=O)([O-])[O-].[Mg+2]", "note": "[MgSO4]", "values": [{"measurement": "accumulation of bvg^− cells", "setting": "[3]", "value": "significantly lower accumulation of bvg^− cells"}, {"measurement": "Proportion of bvg^− cells", "setting": "[3]; Series C: MgSO4 20 mM, niacin 0.004 g/L, end of fourth culture, start 1%", "value": 2, "unit": "%"}, {"measurement": "Proportion of bvg^− cells", "setting": "[3]; Series C: MgSO4 20 mM, niacin 0.004 g/L, end of third culture, start 1%", "value": 3, "unit": "%"}]}
{"smiles": "O=C(O)c1cccnc1", "note": "[niacin]", "values": [{"measurement": "Final biomass (OD650 nm)", "setting": "[1]; [5]", "value": 7.2, "unit": "OD650 nm"}, {"measurement": "Total fermentation time", "setting": "[1]; [5]", "value": 43, "unit": "h"}, {"measurement": "PT concentration at end of fermentation", "setting": "[2]", "value": 22.8, "unit": "mg/L"}, {"measurement": "Specific PT production at end of fermentation", "setting": "[2]", "value": 3.2, "unit": "mg L^−1 OD650 nm^−1"}, {"measurement": "number of generations for which control of bvg^− take-over is effective", "setting": "[3]", "value": "up to 100 generations"}, {"measurement": "accumulation of bvg^− cells", "setting": "[3]", "value": "significantly lower accumulation of bvg^− cells"}, {"measurement": "Proportion of bvg^− cells", "setting": "[3]; Series A: niacin 0.004 g/L, no MgSO4, end of fourth culture, start 1%", "value": 8, "unit": "%"}, {"measurement": "Proportion of bvg^− cells", "setting": "[3]; Series A: niacin 0.004 g/L, no MgSO4, end of third culture, start 1%", "value": 5, "unit": "%"}, {"measurement": "Proportion of bvg^− cells", "setting": "[3]; Series B: niacin 0.604 g/L, no MgSO4, end of fourth culture, start 1%", "value": 2, "unit": "%"}, {"measurement": "Proportion of bvg^− cells", "setting": "[3]; Series B: niacin 0.604 g/L, no MgSO4, end of third culture, start 1%", "value": 1, "unit": "%"}, {"measurement": "Proportion of bvg^− cells", "setting": "[3]; Table 4 Series A: niacin 0.004 g/L, end of first culture, start 6%", "value": 9, "unit": "%"}, {"measurement": "Proportion of bvg^− cells", "setting": "[3]; Table 4 Series A: niacin 0.004 g/L, end of second culture, start 6%", "value": 14, "unit": "%"}, {"measurement": "Proportion of bvg^− cells", "setting": "[3]; Table 4 Series A: niacin 0.004 g/L, end of third culture, start 6%", "value": 24, "unit": "%"}, {"measurement": "Proportion of bvg^− cells", "setting": "[3]; Table 4 Series B: niacin 0.021 g/L, end of first culture, start 6%", "value": 9, "unit": "%"}, {"measurement": "Proportion of bvg^− cells", "setting": "[3]; Table 4 Series B: niacin 0.021 g/L, end of second culture, start 6%", "value": 15, "unit": "%"}, {"measurement": "Proportion of bvg^− cells", "setting": "[3]; Table 4 Series B: niacin 0.021 g/L, end of third culture, start 6%", "value": 19, "unit": "%"}, {"measurement": "Proportion of bvg^− cells", "setting": "[3]; Table 4 Series C: niacin 0.113 g/L, end of first culture, start 6%", "value": 10, "unit": "%"}, {"measurement": "Proportion of bvg^− cells", "setting": "[3]; Table 4 Series C: niacin 0.113 g/L, end of second culture, start 6%", "value": 14, "unit": "%"}, {"measurement": "Proportion of bvg^− cells", "setting": "[3]; Table 4 Series C: niacin 0.113 g/L, end of third culture, start 6%", "value": 21, "unit": "%"}, {"measurement": "Proportion of bvg^− cells", "setting": "[3]; Table 4 Series D: niacin 0.604 g/L, end of first culture, start 6%", "value": 5, "unit": "%"}, {"measurement": "Proportion of bvg^− cells", "setting": "[3]; Table 4 Series D: niacin 0.604 g/L, end of second culture, start 6%", "value": 5, "unit": "%"}, {"measurement": "Proportion of bvg^− cells", "setting": "[3]; Table 4 Series D: niacin 0.604 g/L, end of third culture, start 6%", "value": 4, "unit": "%"}, {"measurement": "controlling the take-over of bvg^− cells", "setting": "[3]; low niacin concentrations", "value": "less effective"}, {"measurement": "control of the take-over of bvg^− cells", "setting": "[3]; niacin 0.6 g/L rather than 0.004 g/L, independently of initial proportion of bvg− cells", "value": "effectively control the take-over of bvg^− cells"}, {"measurement": "bvg^− take-over", "setting": "[3]; niacin 0.604 g/L, up to 15 generations", "value": "no bvg^− take-over was observed"}, {"measurement": "Final proportion of bvg^− in 20 L-fermentor", "setting": "[4]", "value": 13, "unit": "%"}, {"measurement": "Initial proportion of bvg^− in 20 L-fermentor", "setting": "[4]", "value": 3, "unit": "%"}]}
{"smiles": "O=C(O)[C@@H]1CCCN1", "note": "[proline]", "values": [{"measurement": "Final biomass (OD650 nm)", "setting": "[1]; COQ278: proline 12 g/L, sodium glutamate 7 g/L, NaCl 0 g/L", "value": 11.3, "unit": "OD650nm"}, {"measurement": "Final biomass (OD650 nm)", "setting": "[1]; COQ280: proline 1 g/L, sodium glutamate 20 g/L, NaCl 0 g/L", "value": 9.7, "unit": "OD650nm"}]}
